Results published in paper PMC6332448, “SAR Studies Leading to the Identification of a Novel Series of Metallo-β-lactamase Inhibitors for the Treatment of Carbapenem-Resistant Enterobacteriaceae Infections That Display Efficacy in an Animal Infection Model” (ACS Infectious Diseases, 2018).
Converted amounts (≈) assume the structure as drawn. “And” between values parts separate entries of the source, which are not always exact repeats. Identical values can stand only once. Like-named read-outs stand apart in the source and are kept apart here.

Assays:
[1] = target: NDM-1 (Klebsiella pneumoniae, UniProt C7C422); assay: biochemical; type: biochemical; settings: for IC50: 10 mM HEPES pH 7.5, 25 °C, average of at least two independent assays; for inhibition of NDM-1, in words: tested up to 200 μM
Sequence of NDM-1 (C7C422 29-270, looked up, species assumed): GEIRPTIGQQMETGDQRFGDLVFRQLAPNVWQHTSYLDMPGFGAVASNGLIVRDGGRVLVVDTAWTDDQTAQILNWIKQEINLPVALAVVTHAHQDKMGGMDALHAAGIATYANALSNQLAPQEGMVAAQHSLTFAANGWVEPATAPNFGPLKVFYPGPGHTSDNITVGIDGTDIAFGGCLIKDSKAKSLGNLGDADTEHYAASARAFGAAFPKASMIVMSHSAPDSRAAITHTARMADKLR

[2] = target: VIM-1 (Pseudomonas aeruginosa, UniProt A0A0F7KYQ8); assay: biochemical; type: biochemical; settings: for inhibition of VIM-1, in words: tested up to 200 μM
[3] = target: IMP-1 (Serratia marcescens, UniProt P52699); assay: biochemical; type: biochemical; settings: for inhibition of IMP-1, in words: tested up to 200 μM
Sequence of IMP-1 (P52699 19-246, looked up, species assumed): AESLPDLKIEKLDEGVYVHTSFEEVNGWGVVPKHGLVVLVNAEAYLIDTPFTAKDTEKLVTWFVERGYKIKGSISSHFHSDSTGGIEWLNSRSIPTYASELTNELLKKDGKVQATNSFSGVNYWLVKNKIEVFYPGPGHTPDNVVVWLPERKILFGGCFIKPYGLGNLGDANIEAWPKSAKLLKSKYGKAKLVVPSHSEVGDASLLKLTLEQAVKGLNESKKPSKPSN

[4] = system: NDM-1-producing strain Escherichia coli NTBC121; assay: Whole-cell meropenem potentiation, CLSI broth microdilution MIC; type: cell-based; settings: for MICMEM (meropenem MIC in presence of inhibitor) vs NTBC121: inhibitor present at 100 μM, E. coli NTBC121 (NDM-1), meropenem alone 32 μg/mL
Procedure: (§1) Minimal inhibitory concentrations (MIC) were determined using the Clinical Laboratory Standards Institute (CLSI) broth microdilution procedure. MBL-positive Enterobacteriaceae clinical isolates tested in the susceptibility study included NDM-1-producing strain E. coli NTBC121, VIM-1-producing strain K. pneumoniae NTBC055, and IMP-1-producing strain K. pneumoniae NTBC062. (Individual MICs for all strains tested are presented in Table 2 and Table 1 in the Supporting Information).

[5] = system: VIM-1-producing strain Klebsiella pneumoniae NTBC055; assay: as above; type: cell-based; settings: inhibitor present at 100 μM; K. pneumoniae NTBC055 (VIM-1); meropenem alone 16 μg/mL
Procedure: as §1

[6] = system: IMP-1-producing strain K. pneumoniae NTBC062; assay: as above; type: cell-based, Klebsiella pneumoniae; settings: inhibitor present at 100 μM; K. pneumoniae NTBC062 (IMP-1); meropenem alone 4 μg/mL
Procedure: as §1

[7] = Kinetic solubility in PBS pH 7.4; type: physicochemical; settings: for solubility at 4 h: phosphate-buffered saline, pH 7.4, aqueous buffer, thermodynamic from solid
Procedure: This was determined by vigorous stirring (1200 rpm) of a 20 mg/mL mixture of the test compound in phosphate-buffered saline (PBS) at pH 7.4 for 4 h. The mixture was then centrifuged for 20 min at 10 000 rpm and the supernatant further processed by filtration. The concentration of the test compound in the filtrate was then determined by high-performance liquid chromatography (UV analysis) by comparison to a standard calibration curve of the test compound.

[8] = target: T1, VIM-2 (Escherichia coli, UniProt Q5U7L7); assay: biochemical
[9] = target: T1, VIM-2; settings: tested up to 200 μM
[10] = system: NDM- and VIM-producing clinical strains; parameters: method as in PMID 29530861; settings: cited from earlier work
[11] = system: E. coli (IR3); parameters: method as in PMID 29530861; settings: E. coli (IR3) murine thigh infection model, in combination with meropenem; cited from earlier work
[12] = 300 μM imipenem, read-out: NDM-1 IC50
[13] = 300 μM imipenem, 10 mM HEPES pH 7.5, 25 °C, average of at least two independent assays, read-out: VIM-1 IC50
[14] = 300 μM imipenem, 10 mM HEPES pH 7.5, 25 °C, average of at least two independent assays, read-out: IMP-1 IC50
[15] = acid form, read-out: solubility
[16] = sodium salt, read-out: solubility (Na salt)

| Structure (SMILES) | IC50 ([1]; NDM-1 IC50, 300 μM imipenem) | IC50 [2] [µM] | IC50 [3] [µM] | MICMEM (meropenem MIC in presence of inhibitor) vs NTBC121 [4] [µg/mL] | MICMEM (meropenem MIC in presence of inhibitor) vs NTBC055 [5] [µg/mL] | MICMEM (meropenem MIC in presence of inhibitor) vs NTBC062 [6] [µg/mL] | IC50 [8] [µM] | inhibition of VIM-2, in words [9] | further results |
| --- | --- | --- | --- | --- | --- | --- | --- | --- | --- |
| N#Cc1cccc(CS(=O)(=O)Nc2cccnc2C(=O)O)c1 [Compound 65] | 116 µM | > 200 | 150 | 32 | 2 | 1 | – | – | – |
| O=C(O)c1ncccc1NS(=O)(=O)Cc1ccccc1Cl [Compound 39] | – | – | – | 16 | 0.5 | 1 | – | – | IC50 [1, 12]: 32.6 µM; IC50 [2, 13]: 10.9 µM; IC50 [3, 14]: 20.9 µM |
| O=C(O)c1ncccc1NS(=O)(=O)Cc1cccc(C(F)(F)F)c1 [Compound 40] | – | – | – | 16 | 2 | 1 | – | – | IC50 [1, 12]: 17.9 µM; IC50 [2, 13]: 71.6 µM; IC50 [3, 14]: > 200 µM |
| O=C(O)c1ncsc1NS(=O)(=O)Cc1cc(Cl)cc(Cl)c1 [Compound 74] | 6.9 µM | 28 | 3.2 | 2 | 0.5 | 1 | – | – | – |
| O=C(O)c1ncsc1NS(=O)(=O)c1ccccc1 [Compound 62] | 4.5 µM | > 200 | 58.2 | 0.125 | 0.5 | 1 | 6.2 | – | improvement in potentiation over that expected from enzyme inhibition alone ([4]; 62 (thiazolyl) versus 61 (pyridyl), from PE values): 10 fold; potentiation efficiency (PE = MIC/IC50) ([4]; potentiated meropenem MIC vs E. coli NTBC121 divided by NDM-1 IC50): 0.027; solubility at 4 h [7, 15]: 1.1 mg/mL (≈ 3.87 mM); solubility at 4 h [7, 16]: 18.9 mg/mL |
| Cc1ccc(C(=O)Nc2cccnc2C(=O)O)cc1Cl [Compound 17] | 8.46 µM and 8.5 µM | 95.7 | 87.6 | – | – | – | 93 | detectable inhibition | inhibition of NDM-1, in words [1]: low micromolar inhibition; inhibition of VIM-1, in words [2]: detectable inhibition; inhibition of IMP-1, in words [3]: detectable inhibition |
| O=C(Nc1cccnc1C(=O)O)c1cocn1 [Compound 18] | > 200 µM | > 200 | > 200 | – | – | – | > 200 | inactive | inhibition of NDM-1, in words [1]: inactive; inhibition of VIM-1, in words [2]: inactive; inhibition of IMP-1, in words [3]: inactive |
| O=C(O)c1ncsc1NS(=O)(=O)c1cccnc1 [Compound 76, 5-(Pyridine-3-sulfonamido)-1,3-thiazole-4-carboxylic acid] | 2.67 µM | – | 54 | 0.06 | – | – | – | – | solubility at 4 h [7, 15]: 2.4 mg/mL (≈ 8.41 mM); solubility at 4 h [7, 16]: ~20 mg/mL; solubility (Na salt) ([7]; sodium salt): 16.9 mg/mL; effective inhibitor concentration for potentiation of meropenem ([10]; listed as ANT431): 28 μM and 8 μg/mL; potentiation of meropenem activity, in words ([10]; panel of 94 randomly selected NDM- and VIM-producing clinical strains): potentiate meropenem activity; efficacy with meropenem in thigh infection model, in words [11]: restore the efficacy of meropenem |
| O=C(O)c1ncccc1NS(=O)(=O)Cc1cc(Cl)cc(Cl)c1 [Compound 43] | 18.6 µM | 57.2 | 180 | 8 | 1 | 1 | 0.3 | strong inhibition | – |
| O=C(O)c1ncsc1NS(=O)(=O)Cc1ccc(Cl)c(Cl)c1 [Compound 70] | 7.88 µM | 37.9 | 3.55 | 2 | 1 | 1 | – | – | – |
